Results: patent US20230141603A1, “BENZODIAZEPINE DERIVATIVES AS GABA A GAMMA1 PAM” (Hoffmann-La Roche Inc., priority 2021, published 2023)

Biological target: T1, h-GABAA α1β2γ1 (Homo sapiens, UniProt P14867+Q8N1C3)
T1 construct: expressed in transfected cells; host or cells: HEK293F cells (ThermoFisher R79007), membranes
T1 sequence (P14867 28-456): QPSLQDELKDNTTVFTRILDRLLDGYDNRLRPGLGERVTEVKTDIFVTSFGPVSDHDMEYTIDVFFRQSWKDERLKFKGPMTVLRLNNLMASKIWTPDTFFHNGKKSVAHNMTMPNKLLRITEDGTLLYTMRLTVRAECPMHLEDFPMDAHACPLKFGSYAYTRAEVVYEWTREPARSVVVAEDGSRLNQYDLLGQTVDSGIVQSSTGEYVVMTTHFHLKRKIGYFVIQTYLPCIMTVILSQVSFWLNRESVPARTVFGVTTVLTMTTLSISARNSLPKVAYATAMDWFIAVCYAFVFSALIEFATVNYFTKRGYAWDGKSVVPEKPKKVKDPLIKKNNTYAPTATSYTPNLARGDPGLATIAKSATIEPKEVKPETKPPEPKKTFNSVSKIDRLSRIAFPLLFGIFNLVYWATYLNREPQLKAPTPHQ
T1 sequence (P47870 25-512 partner limits assumed): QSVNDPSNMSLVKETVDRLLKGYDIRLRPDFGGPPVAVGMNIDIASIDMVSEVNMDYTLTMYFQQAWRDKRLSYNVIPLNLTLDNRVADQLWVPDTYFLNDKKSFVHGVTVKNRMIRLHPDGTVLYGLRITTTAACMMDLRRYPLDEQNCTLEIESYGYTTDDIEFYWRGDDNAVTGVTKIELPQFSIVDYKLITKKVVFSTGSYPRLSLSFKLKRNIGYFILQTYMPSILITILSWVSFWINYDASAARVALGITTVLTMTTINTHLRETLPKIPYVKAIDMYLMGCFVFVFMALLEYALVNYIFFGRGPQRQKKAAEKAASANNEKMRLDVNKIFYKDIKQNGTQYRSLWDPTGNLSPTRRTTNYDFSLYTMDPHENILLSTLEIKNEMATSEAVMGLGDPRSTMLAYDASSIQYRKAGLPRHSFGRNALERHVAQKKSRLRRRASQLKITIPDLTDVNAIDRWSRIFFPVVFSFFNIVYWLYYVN
T1 sequence (Q8N1C3 36-465): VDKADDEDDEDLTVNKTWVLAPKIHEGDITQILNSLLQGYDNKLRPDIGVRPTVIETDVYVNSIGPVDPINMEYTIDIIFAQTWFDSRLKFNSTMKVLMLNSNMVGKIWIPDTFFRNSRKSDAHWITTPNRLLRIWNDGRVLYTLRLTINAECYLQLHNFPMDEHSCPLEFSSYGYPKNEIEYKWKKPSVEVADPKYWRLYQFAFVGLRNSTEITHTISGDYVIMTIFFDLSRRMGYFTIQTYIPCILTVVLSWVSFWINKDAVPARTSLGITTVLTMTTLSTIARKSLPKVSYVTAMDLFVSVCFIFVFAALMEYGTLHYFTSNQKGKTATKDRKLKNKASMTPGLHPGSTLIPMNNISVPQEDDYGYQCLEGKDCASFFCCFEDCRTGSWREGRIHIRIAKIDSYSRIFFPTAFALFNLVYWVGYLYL
Assay: Radioligand binding assay, [3H]RO7239181 competition, HEK293F membranes
Procedure: The affinity of compounds at GABAA γ1 subunit-containing receptors was measured by competition for [^3H]RO7239181 (67.3 Ci/mmol; Roche) binding to membranes from HEK293F cells (ThermoFisher R79007) expressing human (transiently transfected) receptors of composition […], α2β2γ1, α1β2γ1.
Harvested pellets from HEK293F cells expressing the different GABAA receptor subtypes were resuspended in Mannitol Buffer pH 7.2-7.4 (Mannitol 0.29M, Triethylamine 10 mM, Acetic acid 10 mM, EDTA 1 mM plus protease inhibitors (20 tablets Complete, Roche Diagnostics Cat. No. 05 056 489 001 per liter)), washed two times and then resuspended at 1:10 to 1:15 dilution in the same buffer. Cell disruption was performed by stirring the suspension in a Parr vessel #4637 at 435 psi for 15 minutes, and then the suspensions were centrifuged at 1000×g for 15 minutes at 4° C. (Beckman Avanti J-HC; rotor JS-4.2). The supernatant (S1) was transferred in a 21 Schott flask and the pellet (P1) was resuspended with Mannitol Buffer up to 175 ml. The resuspended pellet was transferred into a 250 ml Corning centrifugal beaker and centrifuged at 1500×g for 10 minutes at 4° C. (Beckman Avanti J-HC; rotor JS-4.2). The supernatant (S1) was then transferred in the 21 Schott flask and the pellet was discarded. The supernatants (S1) were centrifuged in 500 ml Beckman polypropylene centrifugal beaker at 15′000×g for 30 minutes at 4° C. (Beckman Avanti J-20 XP; rotor JLA-10.500). The pellet (P2) was resuspended with Mannitol Buffer 1:1 and frozen at −80° C. The supernatant (S2) was centrifuged in 100 ml Beckman polypropylene centrifugal tubes at 48000×g for 50 minutes at 4° C. (Beckman Avanti J-20 XP; rotor JA-18). The supernatant (S3) was discarded and the pellet (P3) was resuspended with 1:1 Mannitol Buffer. The P2 and P3 protein concentration was determined with the BIORAD Standard assay method with bovine serum albumin as standard and measured on the NANO-Drop 1000. The membrane suspension was aliquots (500 μl per tube) and stored at −80° C. until required. Membrane homogenates were resuspended and polytronised (Polytron PT1200E Kinematica AG) in Potassium Phosphate 10 mM, KCl 100 mM binding buffer at pH 7.4 to a final assay concentration determined with a previous experiment.
Assays were incubated to equilibrium for 1 hour at 4° C. and then, membranes were filtered onto unifilter (96-well white microplate with bonded GF/C filters preincubated 20-50 minutes in 0.3% Polyethylenimine) with a Filtermate 196 harvester (Packard BioScience) and washed 4 times with cold Potassium Phosphate 10 mM pH 7.4, KCl 100 mM binding buffer. After drying, filter-retained radioactivity was detected by liquid scintillation counting. Ki values were calculated using Excel-Fit (Microsoft) and are the means of two determinations.

Row | Compound | Ki [nM]
1 | Cc1nnc2n1-c1ccc(Br)c(Cl)c1C(c1c(F)cccc1F)=NC2 [Example 1, 8-bromo-7-chloro-6-(2,6-difluorophenyl)-1-methyl-4H-[1,2,4]triazolo[4,3-a][1,4]benzodiazepine] | 11.3
2 | Fc1ccccc1C1=NCc2nnc(C3CC3)n2-c2ccc(Br)c(Cl)c21 [Example 2, 8-bromo-7-chloro-1-cyclopropyl-6-(2-fluorophenyl)-4H-[1,2,4]triazolo[4,3-a][1,4]benzodiazepine] | 77.5
3 | Fc1ccccc1C1=NCc2nnc(-c3cccnn3)n2-c2ccc(Br)c(Cl)c21 [Example 3, 8-bromo-7-chloro-6-(2-fluorophenyl)-1-pyridazin-3-yl-4H-[1,2,4]triazolo[4,3-a][1,4]benzodiazepine] | 26.1
4 | Cc1nnc2n1-c1ccc(Cl)c(Cl)c1C(c1ccccc1F)=NC2 [Example 4, 7,8-dichloro-6-(2-fluorophenyl)-1-methyl-4H-[1,2,4]triazolo[4,3-a][1,4]benzodiazepine] | 103
5 | Cc1nnc2n1-c1ccc(Cl)c(Cl)c1C(c1c(F)cccc1F)=NC2 [Example 5, 7,8-dichloro-6-(2,6-difluorophenyl)-1-methyl-4H-[1,2,4]triazolo[4,3-a][1,4]benzodiazepine] | 8.2
6 | Cc1nnc2n1-c1ccc(C3CC3)c(Cl)c1C(c1c(F)cccc1F)=NC2 [Example 6, 7-chloro-8-cyclopropyl-6-(2,6-difluorophenyl)-1-methyl-4H-[1,2,4]triazolo[4,3-a][1,4]benzodiazepine] | 237
7 | Fc1cccc(F)c1C1=NCc2nncn2-c2ccc(Br)c(Cl)c21 [Example 7, 8-bromo-7-chloro-6-(2,6-difluorophenyl)-4H-[1,2,4]triazolo[4,3-a][1,4]benzodiazepine] | 9.1
8 | Fc1ccccc1C1=NCc2nncn2-c2ccc(Br)c(Cl)c21 [Example 8, 8-bromo-7-chloro-6-(2-fluorophenyl)-4H-[1,2,4]triazolo[4,3-a][1,4]benzodiazepine] | 43.8
9 | O=c1[nH]nc2n1-c1ccc(Cl)c(Cl)c1C(c1c(F)cccc1F)=NC2 [Example 9, 7,8-dichloro-6-(2,6-difluorophenyl)-2,4-dihydro-[1,2,4]triazolo[4,3-a][1,4]benzodiazepin-1-one] | 7.3
10 | Fc1ccccc1C1=NCc2nnc(-c3cccnn3)n2-c2ccc(Cl)c(Cl)c21 [Example 10, 7,8-dichloro-6-(2-fluorophenyl)-1-pyridazin-3-yl-4H-[1,2,4]triazolo[4,3-a][1,4]benzodiazepine] | 25.8
11 | Fc1cccc(F)c1C1=NCc2nnc(C3CCOCC3)n2-c2ccc(Cl)c(Cl)c21 [Example 11, 7,8-dichloro-6-(2,6-difluorophenyl)-1-tetrahydropyran-4-yl-4H-[1,2,4]triazolo[4,3-a][1,4]benzodiazepine] | 60.3
12 | Fc1cccc(F)c1C1=NCc2nnc(-c3ccncn3)n2-c2ccc(Cl)c(Cl)c21 [Example 12, 7,8-dichloro-6-(2,6-difluorophenyl)-1-pyrimidin-4-yl-4H-[1,2,4]triazolo[4,3-a][1,4]benzodiazepine] | 17.6
13 | O=c1[nH]nc2n1-c1ccc(Br)c(Cl)c1C(c1c(F)cccc1F)=NC2 [Example 13, 8-bromo-7-chloro-6-(2,6-difluorophenyl)-2,4-dihydro-[1,2,4]triazolo[4,3-a][1,4]benzodiazepin-1-one] | 6.2
14 | Fc1cccc(F)c1C1=NCc2nnc(-c3cccnn3)n2-c2ccc(Cl)c(Cl)c21 [Example 14, 7,8-dichloro-6-(2,6-difluorophenyl)-1-pyridazin-3-yl-4H-[1,2,4]triazolo[4,3-a][1,4]benzodiazepine] | 5.2
15 | Fc1cccc(F)c1C1=NCc2nncn2-c2ccc(Cl)c(Cl)c21 [Example 15, 7,8-dichloro-6-(2,6-difluorophenyl)-4H-[1,2,4]triazolo[4,3-a][1,4]benzodiazepine] | 11.5
16 | Cc1ccc2c(c1Cl)C(c1c(F)cccc1F)=NCc1n[nH]c(=O)n1-2 [Example 16, 7-chloro-6-(2,6-difluorophenyl)-8-methyl-2,4-dihydro-[1,2,4]triazolo[4,3-a][1,4]benzodiazepin-1-one] | 22.7
